One series deals with 3′-UTR of BCL2 mRNA. Description: Luciferase assay, pMIR-REPORT-3′-UTR-BCL2 in HCT116 cells. The series is classed as cell-based, human. The settings on record: 10 nM, 24 h, normalized to negative miRNA. As for the experimental part: The predicted miR-129 binding sequence (wild-type, underlined) or a mismatch sequence (mutant, italic underlined) in the 3′UTR of Bcl2 mRNA were synthesized with SpeI and PmeI restriction site overhangs (Invitrogen). After annealing, double strand oligonucleotides were inserted into the pMIR-REPORT plasmid (Invitrogen), downstream of the firefly luciferase reporter. The sequences of these synthesized oligonucleotides are:
Twenty-four hours before transfection, 1.5×10^4 cells were plated in 96-well plate. 10 nM of miR-129 or negative miRNA was transfected into cells together with 100 ng of pMIR-REPORT-3′-UTR-BCL2 (wild-type or mutant) and 1 ng of Renilla luciferase plasmid pRL-SV40 (Promega, Madison, Wis., USA) by DharmaFect Duo (Dharmacon, Lafayette, Colo., USA) following the manufacturer's protocol. Luciferase assay was performed 24 hour after transfection by dual-luciferase reporter assay system (Promega). For each sample, firefly luciferase activity was normalized to Renilla luciferase activity and the inhibition by miR-129 was normalized to the control miRNA.

The test system of series [1] is HCT116 cells. As to the kind of experiment: 5-FU treatment and cytotoxicity assay (WST-1). The series is classed as cell-based. The settings on record: 72 hours, read-out: IC50 (50% growth inhibition, WST-1). How it is done: Twenty-four hours after transfection, HCT116 cells were plated in 96-well plates at 2×10^3 cells per well in triplicates in 100 μl of medium. After 24 hours, fresh medium containing 5-FU alone (ranged from 1 to 4 μM) or miR-129 precursor alone (ranged from 10 nM to 40 nM) or 5-FU and miR-129 together (at a constant ratio 1:10, with increasing concentrations of both compounds) were added, and cells were cultured for an additional 72 hours. Cell viability was measured using the WST-1 assay, and concentration-dependent curves were generated based on the cell viability. The combination index was calculated by CompuSyn software. See, Chou T C et al. (2007).
A general note: Tetrazolium dyes change colour on reduction, which living cells bring about.

The subject of the next series is TS. Description: Western immunoblot analysis of TS protein in HCT116 cells. The series is classed as cell-based, human. The note with it: HCT116 cells with ectopic expression of miR-129. As for the experimental part:
HCT116, RKO and SW480 cells were plated in 6-well plates at 2×10^5, 1×10^5 and 1×10^5 per well, respectively. Twenty-four hours after plating, 100 nM of miR-129 precursor (Ambion, Carlsbad, Calif., USA) or siRNA against BCL2 (Dharmacon, Lafayette, Colo., USA) were transfected to the cells with oligofectamine (Invitrogen, Carlsbad, Calif., USA) in accordance with the manufacturer's protocol. Negative miRNA (Ambion) was also transfected as a negative control.
Forty-eight hours after transfection, cells were lysed with RIPA buffer (Sigma-Aldrich), and Western immunoblotting was performed using standard procedures. The primary antibodies used for the analysis were mouse anti-human BCL2 antibody (1:200; Thermo Fisher Scientific, Fremont, Calif., USA), rabbit anti-human cleaved caspase-3 antibody (1:200; Cell Signaling Technology, Beverly, Mass., USA), rabbit anti-human cleaved caspase-9 antibody (1:200; Cell Signaling Technology), mouse anti-human E2F3 antibody (1:5000; Millipore, Billerica, Mass., USA), mouse anti-human TS antibody (1:400; Millipore), mouse anti-human GAPDH antibody (1:1000, Santa Cruz Biotechnology, Santa Cruz, Calif., USA) or mouse anti-human α-tubulin antibody (1:1000; Millipore). […] HRP activity was detected with SuperSignal West Pico Chemiluminescent Substrate (Thermo Fisher Scientific) and visualized in an UVP Bioimaging system.

The subject of series [2] is HCT116 cells. As to the kind of experiment: Colorectal cancer xenografts (HCT116) in NOD/SCID mice, tumor volume. The class given is in vivo. The note with it: day 24. How it is done:
(§1) When solid and palpable tumors with an average volume of 100-150 mm^3 were formed (at day 14), mice were randomly separated into four groups such that each group was treated either with negative control miRNA, miR-129 alone, 5-FU alone or miR-129 and 5-FU together. The miRNAs were complexed with siPORTamine and injected intratumorally while 5-FU (50 μg g^−1) was injected systemically via the tail vein. All injections were provided in 3-day intervals for a total of three times before the tumors were collected at day 24. […] Importantly, despite the overexpression, the expression levels of miR-129 copy number remained within the physiological range (less than 20 copies/cell based on cycle threshold value at 30, which is equal to the expression of miR-129 in normal colon mucosa). Moreover, the control tumor xenografts had no miR-129 expression (cycle threshold value at 35).
Ten-twelve week old NOD/SCID mice (Jackson Laboratories, Bar Harbor, […]., USA) were used for tumor implantation. All animal procedures were approved by the Stony Brook University Institutional Animal Care and Use Committee (IACUC). The tumor implantation and miRNA injection protocol was modified from Trang et al. (see Trang P., et al., Oncogene. (2010) 29(11):1580-7). The mice were anesthetized by isoflurane inhalation. HCT116 cells were subcutaneously injected into the lower back areas of the mice using 2.5×10^6 cells in 100 μl McCoy's 5A with 50% matrigel (BD Biosciences). The tumor size was measured using a caliper and tumor volume was calculated using the formula V=length×width^2/2. When tumor volumes reach 100-150 mm^3 at day 14 post-injection, the mice were randomly assigned into four groups. For the first two groups, 10 μM negative miRNA or miR-129 precursor (Ambion) complexed with 1.6 μl siPORTAmine (Ambion) in 50 μl McCoy's 5A was injected into the tumors every three days. For the third group, 5-FU (Sigma-Aldrich) was injected at 50 μg/g via the tail vein every three days. Finally, for the last group, both miR-129 precursor and 5-FU were injected as described above. The mice were euthanized on day 24 post-injection by CO2 inhalation, and tumors were dissected out for RNA isolation.

Details of series [3]: species or system NOD/SCID mice. The note with it: mouse, in vivo. How it is done:
as §1, with “35). […]” for “35).”
The miR-129 specific primer and the internal control RNU44 gene were purchased from Ambion. cDNA synthesis was performed by the High Capacity cDNA Synthesis Kit (Applied Biosystems, CA, USA) with miRNA specific primers. […] Expression level of miR-129 was calculated by the ΔΔCT method based on the internal control RNU44, normalized to the control group and plotted as relative quantification (RQ).

Like-named read-outs stand apart in the source and are kept apart here.

Turning to “miR-129: nucleic acid having a sequence of CUUUUUGCGGUCUGGGCUUGC (SEQ ID NO. 1); miR-129 precursor from Ambion used (chemistry not given here; listed as Homo sapiens)”, the “firefly luciferase activity of pMIR-REPORT-3′-UTR-BCL2 (wild-type)” value in the series with 3′-UTR of BCL2 mRNA is reported as “significantly inhibited the luciferase activity”. Moreover, in the series on 3′-UTR of BCL2 mRNA, the “luciferase activity of reporter with 3′-UTR of BCL2 with three point mutations in the miR-129 binding site (mutant)” value is listed as “did not inhibit the luciferase activity”. The values for the concentration for half-maximal inhibition (IC50) in the series with HCT116 cells [1] (miR-129 alone) and with HCT116 cells [1] (miR-129 when combined with 5-FU (fixed ratio 1:10)) were 11.2 nM and 6.3 nM, respectively. In addition, in the series on TS, the TS protein expression entry was “suppressed the protein expression of TS”. Besides, the “inhibition of tumor growth (in words)” value in the series with HCT116 cells [2] (HCT116 xenograft, compared with negative miRNA or single agents) is “sufficiently reduced tumor size”. Besides, the “average tumor volume, % of the control group” value in the series with HCT116 cells [2] (treated days 14, 17, 20, miRNA intratumoral with siPORTamine, 5-FU 50 μg/g tail vein, control negative miRNA) was ~84.4%. Also, the “miR-129 copy number in injected tumors” value in series [3] was “less than 20 copies/cell”.

In general, IC50 refers to the concentration needed to halve the response being measured.

These data come from patent US10697020B2, “MicroRNA-129 as a biomarker for colorectal cancer” (THE RESEARCH FOUNDATION FOR THE STATE UNIVERSITY OF NEW YORK, priority 2013, dated 2020).
